Experiments:
[1] = test system: human neutrophils (specific granule marker CD66b); test: Flow cytometry of specific granule exocytosis (CD66b) in human neutrophils; assay type: cell-based; details: 1 hour, GM-CSF + fMLP; for Inhibition of CD66b up-regulation: relative to DMSO; for inhibition at 10 µM: Homo sapiens, Neutrophil, FIG. 5, read-out: % inhibition of CD66b up-regulation
Description: (§1) Human neutrophils were isolated from normal donor's blood by Ficoll density centrifugation, as described previously (23). Murine bone marrow-derived neutrophils were isolated using a Percoll gradient fractionation system as described (24). A three-layer Percoll gradient was used (52%, 64%, and 72%), and neutrophils were isolated from the 64-72% interface, washed, and used in the assays.
(§2) Method: The up-regulation of granule membrane-associated neutrophil markers at the plasma membrane was analyzed by flow cytometry. In these studies, flow cytometry analysis was performed by resuspension of 1×10^6 human neutrophils in phenol red-free RPMI 1640 medium, treated with a 10 μM solution of Inhibitors C1, C2, C4, C5, and C6 and Nexinhib 20 (C20) or DMSO control for 1 hour, and stimulated with physiological agonists GM-CSF (10 ng/ml) for 30 min followed by the addition of fMLP (1 μM) to induce degranulation or left untreated at 37 °C (non-stimulated, NS). The reactions were stopped by transferring the samples to ice and immediately spinning down the cells to initiate blocking and staining. To analyze the plasma membrane expression of plasma membrane markers, the cells were blocked in ice-cold PBS containing 1% BSA and stained with phycoerythrin (PE)-, FITC-, or Alexa647-conjugated anti-human CD63, CD66b, MMP9, and CD11b antibodies that detect extracellular epitopes of these markers. The cells were then washed and fixed in 1% paraformaldehyde in PBS. Samples were analyzed using a NovoCyte flow cytometer, and the data were processed using FlowJo software.

[2] = test system: wild-type neutrophils; test: Secretion by wild-type neutrophils; assay type: cell-based
[3] = test system: human neutrophils (azurophilic granule marker CD63); test: Flow cytometry of azurophilic granule mobilization (CD63) in human neutrophils; assay type: cell-based; details: 1 hour, GM-CSF + fMLP; for Inhibition of CD63 up-regulation: 10 μM, relative to DMSO, FIG. 4; for inhibition at 10 µM: Homo sapiens, Neutrophil, N=15 donors, FIG. 4, read-out: Mean % inhibition of CD63 up-regulation
Description: as §1, §2

[4] = test system: neutrophils that carry the NLRP3 A350V mutation; test: Secretion by bone-marrow-derived neutrophils from Nlrp3 A350V (CAPS) mice; assay type: cell-based, mouse; details: 10 μM, 1 hour, LPS and fMLF; for Mobilization of azurophilic granules (MPO) / Mobilization of gelatinase granules (MMP9) / Mobilization of CD63: FIG. 8; for Neutrophil secretion (hyperactivation of secretion): Nlrp3 A350V and wild type, FIG. 8A-C; for Mobilization of CD63: murine neutrophils
Description: FIG. 8A-C. […] A, gelatinase (MMP9) granules; B, azurophilic granules (MPO, myeloperoxidase); C, CD63 (an endolysosomal marker). […] Subsequently, neutrophils were either stimulated with lipopolisacharide (LPS) and the chemotatctic peptide fMLF or left untreated. C20 (Nexinhib20 is used as control). Mean±SEM, n=3. In this and subsequent figures, p<0.05; **, p<0.01; ***, p<0.001; ****, p<0.0001, ANOVA.
These compounds are now tested using neutrophils from a mouse model of Cryopyrin-Associated Periodic Syndrome (CAPS), a systemic inflammatory disease in humans, caused by gain-of-function mutations of the NOD-like receptor family member, cryopirin, also known as NLRP3 (J Cin Immunol 39, 277-286, doi:10.1007/s10875-019-00638-z (2019)). Heterozygous NLRP3 mutations lead to hyper-responsive NLRP3 inflammasome function characterized by increased caspase-1 (Casp1) activation and […], and is observed in patients and in animal models with NLRP3-gain-of-function mutations. […] Subsequently, neutrophils were either stimulated with LPS and the chemotatctic peptide fMLF or left untreated.

[5] = test system: human neutrophils (secretory vesicle marker CD11b); test: Flow cytometry of secretory vesicle mobilization (CD11b) in human neutrophils; assay type: cell-based; details: 10 μM, 1 hour; GM-CSF + fMLP; relative to DMSO; N=15 donors; FIG. 7
Description: as §1, §2

[6] = test system: mouse neutrophils; test: Isoluminol-dependent chemiluminescence assay of MPO secretion in purified mouse neutrophils; assay type: cell-based
Description: FIGS. 3A-C illustrate the effect of Inhibitors C1, C2, C4, C5, and C6 and comparator Nexinhib 20 (shown as “C20”) on MPO secretion of mouse neutrophils. FIG. 3A is a schematic representation of a cell-based secondary screening assay used to analyze the potency the potency of Rab27a-JFC1 inhibitors for their ability to decrease exocytosis of intact human neutrophil. This cell-based assay measures the secretion of myeloperoxidase (MPO) by human neutrophils using cell-impermeant isoluminol-dependent chemiluminescence in the absence of exogenous peroxidases.
as §1
Extracellular MPO-dependent reactive oxygen species (ROS) production was measured using the chemiluminescence reactions mediated by isoluminol (25). To this end, 3×10^5 neutrophils were resuspended in serum-free RPMI 1640 medium in the presence of cell-impermeant isoluminol, and reactions were carried out in the absence of exogenous peroxidase. Neutrophils were incubated in the presence of compounds or DMSO (0.5%) pin-tooled into 384-well plates in a […]. Control experiments were run in parallel in the presence of [COMPOUND LEFT OUT] (0.5 mM) to inhibit endogenous myeloperoxidase. After addition of stimuli (phorbol 12-myristate 13-acetate, “PMA”) or vehicle using liquid handling devices (BioRaptor FRD, Beckman Coulter), MPO-dependent chemiluminescence was continuously monitored for 30 min at 37 °C using a 2104 EnVision multilabel plate reader. For secretion assays, 0.5×10^6 neutrophils were incubated in RPMI 1640 medium in polystyrene 96-well plates in the presence of Inhibitors or dimethyl sulfoxide (DMSO) control for 1 hour and stimulated for the indicated times at 37 °C with PMA (0.1 μg/ml), GM-CSF (10 ng/ml), and fMLP (1 μM) or DMSO control. The cells were spun down, and supernatants were transferred to clean plates using plate filters to avoid contamination from cellular secretory proteins. MPO was measured by ELISA (R&D Systems).
Results: FIG. 3B is a graph showing the effect of Inhibitors C1, C2, C4, C5, and C6 on secreted MPO-dependent reaction using the isoluminol-dependent chemiluminescence assay in highly purified mouse neutrophils. On the graph of FIG. 3B, the pre-fix “NS” means “no stimuli” where the cells were treated with 10 μM C1, C2, C4, C5, C6, and C20 alone without any exocytosis stimuli. The pre-fix “PMA” means the cells were stimulated with PMA to secrete MPO and were treated with 10 μM of the designated Inhibitor. […] Mean % inhibition: C1, 76.74; C2, 59.85; C4, 70.9; C6, 62.4; C20, 99.22.

[7] = test system: human neutrophils (Gelatinase granule cargo MMP9); test: Flow cytometry of gelatinase granule exocytosis (MMP9) in human neutrophils; assay type: cell-based; details: 1 hour, GM-CSF + fMLP; for Inhibition in MMP9 experiment (words; printed as CD66b up-regulation): 10 μM, relative to DMSO, FIG. 6; for inhibition at 10 µM: Homo sapiens, Neutrophil, N=12 donors, FIG. 6, read-out: % Inhibition of MMP9 up-regulation
Description: as §1, §2

[8] = 10 μM inhibitor, PMA stimulated, FIG. 3B
[9] = Mus musculus, Neutrophil, 10 μM inhibitor, PMA stimulated, FIG. 3B

Compound | Inhibition of CD66b up-regulation ([1]; 10 μM, FIG. 5) | inhibition at 10 µM ([1]; N=12 donors) [%] | Inhibitory effect on wild-type neutrophils [2] | Inhibition of CD63 up-regulation [3] | inhibition at 10 µM [3] [%] | Mobilization of azurophilic granules (MPO) [4] | Mobilization of gelatinase granules (MMP9) [4] | Neutrophil secretion (hyperactivation of secretion) ([4]; listed as C1) | Neutrophil secretion (hyperactivation of secretion) ([4]; listed as NEIa-C1) | Mobilization of CD63 [4] | Release of CD11b+ vesicles / CD11b upregulation [5] | Inhibition of exocytosis vs DMSO control [6, 8] | inhibition at 10 µM [6, 9] [%] | IC50 ([6]; Mus musculus, Neutrophil, dose-response analysis, FIG. 3C) [nM] | Inhibition in MMP9 experiment (words; printed as CD66b up-regulation) [7] | inhibition at 10 µM [7] [%] | Neutrophil secretion (hyperactivation of secretion) [4] | % inhibition of CD66b up-regulation ([1]; 10 μM, N=12 donors, FIG. 5) [%] | Mean % inhibition of MPO-dependent chemiluminescence (MPO secretion) [6, 8] [%]
CN(C)c1cccc(/C=C(/C(=O)C(C)(C)C)n2cncn2)c1 [150 (C1)] | marked and significant inhibition of CD66b up-regulation | 57.6 | selective inhibitory effect on wild-type neutrophils | marked and significant inhibition of CD63 up-regulation | 93.1 | inhibit the mobilization | inhibit the mobilization of gelatinase granules (MMP9) | inhibit the hyperactivation of secretion | significantly inhibit secretion | significantly inhibited the mobilization of CD63 | unaffected | significant inhibition of exocytosis | 76.7 | 860 | marked inhibition of CD66b up-regulation | 55.3 |  |  | 
CC(C)(C)C(=O)C(=Cc1cccc(O)c1)n1cncn1 [151 (C2)] | marked and significant inhibition of CD66b up-regulation | 35.8 | selective inhibitory effect on wild-type neutrophils | marked and significant inhibition of CD63 up-regulation | 59.5 |  |  |  |  |  | unaffected | significant inhibition of exocytosis | 59.9 |  | marked inhibition of CD66b up-regulation | 26.5 |  |  | 
O=C(Nc1ccccc1)/C(=C/c1cccc([N+](=O)[O-])c1)n1cncn1 [152 (C4)] | marked and significant inhibition of CD66b up-regulation | 48.1 | selective inhibitory effect on wild-type neutrophils |  |  | inhibit the mobilization | inhibit the mobilization of gelatinase granules (MMP9) |  |  | significantly inhibited the mobilization of CD63 | unaffected | significant inhibition of exocytosis | 70.9 |  |  | 16.4 | inhibit the hyperactivation of secretion |  | 
CNC(=O)/C(=C/c1cccc([N+](=O)[O-])c1)n1cncn1 [153 (C5)] |  |  |  |  |  |  |  |  |  |  | unaffected |  |  |  |  |  |  |  | 
CC(C)(C)C(=O)/C(=C/c1cccc([N+](=O)[O-])c1)n1cncn1 [Nexinhib20, reference compound] | marked and significant inhibition of CD66b up-regulation |  |  | marked and significant inhibition of CD63 up-regulation |  |  |  |  |  |  | significantly inhibited CD11b upregulation at the plasma membrane (to levels lower than basal controls) |  |  |  | marked inhibition of CD66b up-regulation |  |  | 100 | 99.22
